The values that follow come from patent US10413545B2, “Imidazolin-5-one derivative useful as FASN inhibitors for the treatment of cancer” (Janssen Pharmaceutica NV, priority 2013, dated 2019).

Read-outs that look alike come from different tables or passages of the source.

Holding throughout (assay type): cell-based
One test relates to A2780 ovarian cells. The test is described as follows: A2780 Ovarian Cell Proliferation Assay in Lipid Reduced Medium, with and without Palmitate (MTT). The note with it: Homo sapiens, 10% lipid-reduced serum, 96 h. The method, then: The biological assays described below correspond to comparative assays for ovarian cell proliferation.
2500 cells were seeded in a 96-well clear well plate in 200 μL RPM11640 with 10% Fetal Calf Serum (Hyclone), and incubated at 37° C., 5% CO2, Blanks were wells without cells. The next day the culture medium was aspirated and replaced by 160 μL culture medium with 10% Lipid-Reduced Serum (LRS, Hyclone). […] After 96 h incubation, an MTT assay was performed.
2500 cells were seeded in a 96-well clear well plate in 200 μL RPM11640 with 10% Fetal Calf Serum (Hyclone), and incubated at 37° C., 5% CO2. Blanks were wells without cells. The next day the culture medium was aspirated and replaced by 160 μL culture medium with 10% Lipid-Reduced Serum (LRS, Hyclone). 20 μL test compound (at concentrations of 30 μM, 10 μM, 3 μM, 1 μM, 0.30 μM, 0.10 μM, 0.03 μM and 0.01 μM)/DMSO dilution followed by 20 μL ethanol-BSA solution were added to a final concentrations of 0.2% DMSO, 0.2% fatty-acid-free BSA, 0.25% ethanol. After 96 h incubation an MTT assay was performed.
Raw data generated by the instrument were normalized to % Controlmin values, which were calculated as: % Controlmin=100*(x−mLC)/(mHC−mLC)
where mLC and mHC were the means of the low control wells and high control wells on the plate, after manual exclusion of outliers. A plot of Controlmin versus test compound concentration was fitted to a 4-parameter logistic curve using a non-linear least squares regression method.

In test [1] the test system is PC-3M-Luc-C6 prostate cells. The test is described as follows: In Vitro PC-3M-Luc-C6 Prostate Cell Proliferation Assay in Lipid Reduced Medium. The note with it: 10% lipid reduced serum, 96 h, ATP-glow luminescence; for IC50: Prostate cell, read-out: pIC50 PC-3M-Luc-C6 prostate cell (converted). The method, then: PC-3M-Luc-C6 prostate cells were obtained from Xenogen Corporation. Cells were maintained in MEM supplemented with 10% Fetal Calf Serum (FCS, Hyclone), 2 mM glutamine, 1 mM sodium pyruvate, 1% BME vitamins (available from for example, Sigma Aldrich), 0.1 mM non Essential Amino Acid and 50 μg/ml Gentamicin. The cells were passaged twice a week.
The next day 10 μl test compound/DMSO diluted in medium was added (3E-5M, 1E-5M, 3E-6M,1E-6M, 3E-7M, 1E-7M, 3E-8M, 1E-8M final concentration). Compounds were tested in duplicate. After 96 h incubation at 37° C., 5% CO2 25 μl ATP-glow mix was added. The plate was incubated for 30 min at 37° C. and luminescence was measured with the Envision.
(§1) Analysis: Determination of pIC50 Values
(§2) pIC50 values were calculated as follows. Raw data generated by the instruments were normalized to % Controlmin values, which were calculated as: % Controlmin=100*(x−mLC)/(mHC−mLC),
(§3) where mLC and mHC are the means of the low control wells and high control wells on the plate, after manual exclusion of outliers. The relation between the % Controlmin values and concentration was fitted to a 4-parameter logistic curve using a non-linear least squares regression method to determine the pIC50 value. Outlying data points were excluded manually to get a correct fit. The pIC50 corresponds to −log 10(IC50), if the IC50 is expressed in molar units (http://www.ncbi.nlm.nih.qovibooks/NBK91994). The IC50 parameter was always determined by non-linear regression, but one or more of the other parameters may have been held fixed on a relevant input value, such as 0 for the bottom values.

The test system of test [2] is LNCaP_Vancouver prostate cells. The test is described as follows: In Vitro LNCaP Vancouver Prostate Cell Proliferation Assay in Lipid Reduced Medium. The note with it: 10% lipid reduced serum, 96 h, ATP-glow luminescence; for IC50: Prostate cell, read-out: pIC50 LNCaP_Vancouver prostate cell (converted). The method, then: LNCaP_Vancouver prostate cells were obtained from the Vancouver Prostate Cancer Centre.
The next day 10 μl of test compound/DMSO diluted in medium was added (3E-5M, 1E-5M, 3E-6M,1E-6M, 3E-7M, 1E-7M, 3E-8M, 1E-8M final concentration). Compounds were tested in duplicate. After 96 h incubation at 37° C., 5% CO2 25 μl ATP-glow mix was added. The plate was incubated for 30 min at 37° C. and luminescence was measured with the Envision.
as §1, §2, §3

Setting [3] is: 25 μM palmitate added (control), read-out: pIC50 With Palmitate (converted).
[4] abbreviates: no palmitate, read-out: pIC50 Without Palmitate (converted).

For the molecule `Cc1cc(-c2ccc3cc(F)ccc3c2)ccc1C1=NC(C)(C)C(=O)N1C[C@@H]1CCN(C(=O)C2(C)CC2)C1` [Compound 86, (R)-2-(4-(6-fluoronaphthalen-2-yl)-2-methylphenyl)-4,4-dimethyl-1-((1-(1-methylcyclopropanecarbonyl)pyrrolidin-3-yl)methyl)-1H-imidazol-5(4H)-one], the IC50 was approximately 7760 nM with A2780 ovarian cells (setting [3]), 3.98 nM in the test on A2780 ovarian cells (setting [4]) and 6.17 nM in test [1].
As to `Cc1cc(-c2ccc3cc(F)ccc3c2)ccc1C1=NC(C)(C)C(=O)N1CC1CN(C(=O)C2(C)CC2)C1` [Compound 82], the results for the IC50 (with A2780 ovarian cells (setting [3]); in the test with A2780 ovarian cells (setting [4]); in test [1]) were 4370 nM, 14.5 nM and 64.6 nM, respectively.
For the molecule `CC1(C)N=C(c2ccc(-c3ccc(-c4ccncc4)cc3)cc2F)N(C[C@@H]2CCN(C(=O)C3CC3)C2)C1=O` [Compound 46, (R)-1-((1-(cyclopropanecarbonyl)pyrrolidin-3-yl)methyl)-2-(3-fluoro-4′-(pyridin-4-yl)-[1,1′-biphenyl]-4-yl)-4,4-dimethyl-1H-imidazol-5(4H)-one], the IC50 is 9550 nM in the test on A2780 ovarian cells (setting [3]), 52.5 nM in the test on A2780 ovarian cells (setting [4]) and 407 nM in test [2].
As for `Cn1cc(-c2ccc(-c3ccc(C4=NC(C)(C)C(=O)N4CC4CN(C(=O)C5CC5)C4)c(F)c3)cc2)cn1` [Compound 33, 1-((1-(cyclopropanecarbonyl)azetidin-3-yl)methyl)-2-(3-fluoro-4′-(1-methyl-1H-pyrazol-4-yl)-[1,1′-biphenyl]-4-yl)-4,4-dimethyl-1H-imidazol-5(4H)-one], the IC50 in the test on A2780 ovarian cells (setting [3]) was more than 10000 nM; with A2780 ovarian cells (setting [4]), 245 nM; in test [2], 2040 nM.
Regarding `CC1(C)N=C(c2ccc(-c3cnc4ccccc4c3)cc2F)N(C[C@@H]2CCN(C(=O)C3CC3)C2)C1=O` [Compound 48, (R)-1-((1-(cyclopropanecarbonyl)pyrrolidin-3-yl)methyl)-2-(2-fluoro-4-(quinolin-3-yl)phenyl)-4,4-dimethyl-1H-imidazol-5(4H)-one], the values for the IC50 (in the test on A2780 ovarian cells (setting [3]); with A2780 ovarian cells (setting [4]); in test [2]) were more than 10000 nM, 537 nM and 3980 nM, respectively.
For the molecule `CC1(C)N=C(c2ccc(-c3ccc4cccc(F)c4c3)cc2F)N(CC2CN(C(=O)C3CC3)C2)C1=O` [Compound 55, 1-((1-(cyclopropanecarbonyl)azetidin-3-yl)methyl)-2-(2-fluoro-4-(8-fluoronaphthalen-2-yl)phenyl)-4,4-dimethyl-1H-imidazol-5(4H)-one], the IC50 in test [2] was 120 nM; in test [1], 43.7 nM.
For `CC1(C)N=C(c2ccc(-c3cccc4ncccc34)cc2F)N(C[C@@H]2CCN(C(=O)C3CC3)C2)C1=O` [Compound 47, (R)-1-((1-(cyclopropanecarbonyl)pyrrolidin-3-yl)methyl)-2-(2-fluoro-4-(quinolin-5-yl)phenyl)-4,4-dimethyl-1H-imidazol-5(4H)-one], the IC50 was approximately 10000 nM in the test on A2780 ovarian cells (setting [3]), approximately 933 nM in the test with A2780 ovarian cells (setting [4]) and 3550 nM in test [2].
With `CC1(C)N=C(c2ccc(-c3ccc4cncnc4c3)cc2F)N(CC2CN(C(=O)C3CC3)C2)C1=O` [Compound 43, 1-((1-(cyclopropanecarbonyl)azetidin-3-yl)methyl)-2-(2-fluoro-4-(quinazolin-7-yl)phenyl)-4,4-dimethyl-1H-imidazol-5(4H)-one], in test [2], the “pIC50 LNCaP_Vancouver prostate cell” value is on record as 5.63. Besides, the “pIC50 PC-3M-Luc-C6 prostate cell” value in test [1] is listed as 6.06.
On to `Cn1cc(-c2ccc(-c3ccc(C4=NC(C)(C)C(=O)N4CC4CN(C(=O)C5(O)CC5)C4)c(F)c3)cc2)cn1` [Compound 81, 2-(3-fluoro-4′-(1-methyl-1H-pyrazol-4-yl)-[1,1′-biphenyl]-4-yl)-1-((1-(1-hydroxycyclopropanecarbonyl)azetidin-3-yl)methyl)-4,4-dimethyl-1H-imidazol-5(4H)-one], for which the results for the IC50 (with A2780 ovarian cells (setting [3]); with A2780 ovarian cells (setting [4]); in test [1]) were more than 10000 nM, 229 nM and 661 nM, respectively.
As for `Cc1cc(-c2ccc3c(c2)ncn3C)ccc1C1=NC(C)(C)C(=O)N1C[C@@H]1CCN(C(=O)C2(C)CC2)C1` [Compound 85, (R)-4,4-dimethyl-2-(2-methyl-4-(1-methyl-1H-benzo[d]imidazol-5-yl)phenyl)-1-((1-(1-methylcyclopropanecarbonyl)pyrrolidin-3-yl)methyl)-1H-imidazol-5(4H)-one], the IC50 in the test with A2780 ovarian cells (setting [3]) is more than 10000 nM; in the test on A2780 ovarian cells (setting [4]), 3.89 nM; in test [1], approximately 10.7 nM.
As to `Cc1cc(-c2ccc3c(cnn3C)c2)ccc1C1=NC(C)(C)C(=O)N1C[C@@H]1CCN(C(=O)C2(C)CC2)C1` [Compound 80, (R)-4,4-dimethyl-2-(2-methyl-4-(1-methyl-1H-indazol-5-yl)phenyl)-1-((1-(1-methylcyclopropanecarbonyl)pyrrolidin-3-yl)methyl)-1H-imidazol-5(4H)-one], the IC50 with A2780 ovarian cells (setting [3]) was more than 10000 nM; in the test with A2780 ovarian cells (setting [4]), 45.7 nM; in test [1], 17 nM.
On to `Cc1cc(-c2ccc(-c3cnn(C)c3)cc2)ccc1C1=NC(C)(C)C(=O)N1C[C@@H]1CCN(C(=O)C2(C)CC2)C1` [Compound 84], for which the IC50 with A2780 ovarian cells (setting [3]) was 4370 nM; with A2780 ovarian cells (setting [4]) it was 3.31 nM; in test [1] it was 7.76 nM.
Turning to `CC1(C)N=C(c2ccc(-c3ccc4cccc(F)c4c3)cc2)N(CC2CN(C(=O)C3CC3)C2)C1=O` [Compound 40, 1-((1-(cyclopropanecarbonyl)azetidin-3-yl)methyl)-2-(4-(8-fluoronaphthalen-2-yl)phenyl)-4,4-dimethyl-1H-imidazol-5(4H)-one], the IC50 was 5620 nM in the test on A2780 ovarian cells (setting [3]), 468 nM with A2780 ovarian cells (setting [4]) and 2040 nM in test [2].
For `CC1(C)N=C(c2ccc(-c3nc4ccccc4s3)cc2)N(C[C@@H]2CCN(C(=O)C3CC3)C2)C1=O` [Compound 13, (R)-2-(4-(benzo[d]thiazol-2-yl)phenyl)-1-((1-(cyclopropanecarbonyl)pyrrolidin-3-yl)methyl)-4,4-dimethyl-1H-imidazol-5(4H)-one], the IC50 with A2780 ovarian cells (setting [3]) is more than 10000 nM; in the test on A2780 ovarian cells (setting [4]) it was 3390 nM; in test [1], 2090 nM.
For `CC1(C)N=C(c2ccc(-c3nc4ccccc4[nH]3)cc2F)N(C[C@@H]2CCN(C(=O)C3CC3)C2)C1=O` [Compound 61, (R)-2-(4-(1H-benzo[d]imidazol-2-yl)-2-fluorophenyl)-1-((1-(cyclopropanecarbonyl)pyrrolidin-3-yl)methyl)-4,4-dimethyl-1H-imidazol-5(4H)-one], in test [2], the IC50 is 5010 nM.
Turning to `Cc1cc(-c2ccc3c(c2)ncn3C)ccc1C1=NC(C)(C)C(=O)N1CC1CN(C(=O)C2(C)CC2)C1` [Compound 83, 4,4-dimethyl-2-(2-methyl-4-(1-methyl-1H-benzo[d]imidazol-5-yl)phenyl)-1-((1-(1-methylcyclopropanecarbonyl)azetidin-3-yl)methyl)-1H-imidazol-5(4H)-one], the IC50 in the test on A2780 ovarian cells (setting [3]) was more than 10000 nM; with A2780 ovarian cells (setting [4]), 25.7 nM; in test [1] it was 42.7 nM.
Turning to `CC1(C)N=C(c2ccc(-c3ccc4cc(F)ccc4c3)cc2F)N(CC2CN(C(=O)C3(O)CC3)C2)C1=O` [Compound 79, 2-(2-fluoro-4-(6-fluoronaphthalen-2-yl)phenyl)-1-((1-(1-hydroxycyclopropanecarbonyl)azetidin-3-yl)methyl)-4,4-dimethyl-1H-imidazol-5(4H)-one], the IC50 in the test on A2780 ovarian cells (setting [3]) was more than 10000 nM; with A2780 ovarian cells (setting [4]) it was 123 nM; in test [1] it was 70.8 nM.
